Reference: patent US20170275302A1, “INHIBITORS OF THE RENAL OUTER MEDULLARY POTASSIUM CHANNEL” (Merck Sharp & Dohme Corp., priority 2014, published 2017)

target: T1, hROMK (hKir1.1) (Homo sapiens, UniProt P48048); test: Thallium Flux Assay (ROMK channel functional thallium flux assay, FLIPR-Tetra); assay type: cell-based; settings: HEK293 cells stably expressing hROMK (hKir1.1); FluxOR thallium flux, 30 min compound incubation; concentration inhibiting 50% of ROMK thallium flux signal
T1 construct: expressed in transfected cells
T1 sequence (P48048 1-391): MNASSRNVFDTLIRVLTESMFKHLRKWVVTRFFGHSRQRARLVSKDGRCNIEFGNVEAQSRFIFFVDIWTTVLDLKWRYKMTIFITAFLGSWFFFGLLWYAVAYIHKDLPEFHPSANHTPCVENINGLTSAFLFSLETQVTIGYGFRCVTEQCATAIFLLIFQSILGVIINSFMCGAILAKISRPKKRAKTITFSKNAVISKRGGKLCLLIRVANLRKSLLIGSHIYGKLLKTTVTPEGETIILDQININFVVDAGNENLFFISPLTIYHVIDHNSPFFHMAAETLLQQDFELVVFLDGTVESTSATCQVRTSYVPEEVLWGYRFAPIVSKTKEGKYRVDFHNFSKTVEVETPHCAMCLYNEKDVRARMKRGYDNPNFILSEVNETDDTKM
Protocol: The following Thallium Flux Assay was performed on each of the final product compounds in the Examples.
HEK293 cells stably expressing hROMK (hKir1.1) were grown at 37° C. in a 10% CO2 humidified incubator in complete growth media: Dulbecco's Modified Eagle Medium supplemented with non-essential amino acids, Penicillin/Streptomycin/Glutamine, G418 and FBS. At >80% confluency, the media was aspirated from the flask and rinsed with 10 mL calcium/magnesium-free phosphate buffered saline (PBS). 5 mL of 1× trypsin (prepared in Ca/Mg Free PBS) was added to T-225 flask and the flask was returned to 37° C./CO2 incubator for 2-3 minutes. To dislodge the cells, the side of the flask was gently banged with one's hand. The cells were completely titrated and then the cells were transferred to 25 mL complete media, centrifuged at 1,500 rpm for 6 min followed by resuspension in complete growth media, and the cell concentration was determined. For typical re-seeding, 4E6 cells/T-225 flask will attain >80% confluency in 4 days. Under ideal growth conditions and appropriate tissue culture practices, this cell line is stable for 40-45 passages.
Compound Buffer (per microplate): 20 mL Probenecid/Assay Buffer; 0.3 mM ouabain (10 mM ouabain in water can be stored in amber bottle/aluminum foil at room temperature); Test compound
Stimulant Buffer (prepared at 5× final concentration in 1× FluxOR™Chloride-Free Buffer): 7.5 mM thallium sulfate and 0.75 mM potassium sulfate (to give a final assay concentration of 3 mM Thallium/0.3 mM potassium). Store at 4° C. when not in use. If kept sterile, this solution is good for months.
The ROMK channel functional thallium flux assay was performed in 384 wells, using the FLIPR-Tetra instrument. HEK-hKir1.1 cells were seeded in Poly-D-Lysine microplates and kept in a 37° C.-10% CO2 incubator overnight. On the day of the experiment, the growth media was replaced with the FluxOR™ reagent loading buffer and incubated, protected from light, at ambient temperature (23-25° C.) for 90 min. The loading buffer was replaced with assay buffer±test compound followed by 30 min incubation at ambient temperature, where the thallium/potassium stimulant was added to the microplate.
• 1. Seed HEK-hKir1.1 cells (50 μl at 20,000 cells/well) in 384-well PDL coated Microplates • 2. Allow cells to adhere overnight in humidified 37° C./10% CO2 incubator • 3. Completely remove cell growth media from microplate and replace with 25 μl loading buffer • 4. Incubate Microplate at room temperature, protected form light, for 90 min • 5. Remove loading buffer and replace with 25 μl 1× Assay Buffer±test compound. • 6. Incubate microplate at room temperature, protected from light, for 30 min • 7. At FLIPR-Tetra 384: Add stimulant (thallium/potassium) solution to microplate and monitor fluorescence. Excitation=400 nm, Emission=460 & 580 nm. Collect data for ˜10 min.
The fluorescence intensity of wells containing 3 μM of a standard control ROMK inhibitor of the present invention was used to define the ROMK-sensitive component of thallium flux. Fluorescence in the presence of test compounds was normalized to control values to provide % fluorescence change. IC50 values represent the concentration of compound that inhibited 50% of the ROMK thallium flux signal.

| IC50 | Compound |
| --- | --- |
| 0.132 µM | Cc1c([C@@H](O)CN2CCC3(CC2)CCN(c2nc4cc(C#N)ccc4[nH]2)C3)ccc2c1COC2=O [Example 2] |
| 0.0187 µM | Cc1c(C(O)CN2CCC3(CC2)CCN(c2ccc4nncn4n2)C3)ccc(C#N)c1F (racemic) [Example 53] |
| 0.267 µM | Cc1c([C@@H](O)CN2CCC3(CC2)CCN(c2ccc4nsnc4c2)C3=O)ccc2c1COC2=O [Example 31] |
| 0.261 µM | Cc1c([C@@H](O)CN2CCC3(CC2)CCN(c2nn4cnnc4c4ccccc24)C3)ccc2c1COC2=O [Example 9] |
| 0.0128 µM | Cc1c([C@@H](O)CN2CCC3(CC2)CCN(c2ccc4nnnn4n2)C3)ccc2c1COC2=O [Example 10, (R)-5-(1-hydroxy-2-(2-(tetrazolo[1,5-b]pyridazin-6-yl)-2,8-diazaspiro[4.5]decan-8-yl)ethyl)-4-methylisobenzofuran-1(3H)-one] |
| 0.317 µM | Cc1c([C@@H](O)CN2CCC3(CC2)CCN(c2snc4ncccc24)C3)ccc2c1COC2=O [Example 27, (R)-5-(1-hydroxy-2-(2-(isothiazolo[3,4-b]pyridin-3-yl)-2,8-diazaspiro[4.5]decan-8-yl)ethyl)-4-methylisobenzofuran-1(3H)-one] |
| 0.084 µM | OC(CN1CCC2(CC1)CCN(c1ccc3nncn3n1)C2)c1ccc(-n2cnnn2)nc1 (racemic) [Example 52] |
| 0.411 µM | Cc1c([C@@H](O)CN2CCC3(CC2)CCN(c2ccc4nnc(-c5ccco5)n4n2)C3)ccc2c1COC2=O [Example 13] |
| 0.221 µM | COc1cc([C@@H](O)CN2CCC3(CC2)CCN(c2ccc4nncn4c2)C3)ncc1C#N [Example 73] |
| 0.0881 µM | Cc1cc(C#N)cnc1C(O)CN1CCC2(CC1)CCN(c1ccc3nncn3n1)C2 (centres unmarked) [Example 48] |
| 0.0571 µM | Cc1c([C@@H](O)CN2CCC3(CC2)CCN(c2snc4ncccc24)C3=O)ccc2c1COC2=O [Example 84] |
| 0.077 µM | Cc1nc(C(O)CN2CCC3(CC2)CCN(c2ccc4nncn4n2)C3)ccc1C#N (centres unmarked) [Example 46, 6-(2-(2-([1,2,4]triazolo[4,3-b]pyridazin-6-yl)-2,8-diazaspiro[4.5]decan-8-yl)-1-hydroxyethyl)-2-methylnicotinonitrile] |
| 0.0347 µM | Cc1cc(C#N)cnc1C(O)CN1CCC2(CCN(c3ccc4nncn4n3)CC2)C1 (centres unmarked) [Example 65, 6-(2-(8-([1,2,4]triazolo[4,3-b]pyridazin-6-yl)-2,8-diazaspiro[4.5]decan-2-yl)-1-hydroxyethyl)-5-methylnicotinonitrile] |
| 0.413 µM | COc1cc(C(O)CN2CCC3(CC2)CC(=O)N(c2ccc4nncn4n2)C3)ccc1C#N (centres unmarked) [Example 58] |
